Experiment: MALDI-TOF screening of Ni^2+ dependent hydrolysis in a combinatorial peptide library
Assay type: physicochemical
Details: Ni^2+ 2 mM, pH 8.2, 10 mM Tris, score=24/tm
Text: The sequence CH3CO-Gly-Ala-Ser/Thr-X-His-Z-Lys-Phe-Leu-NH2 was designed so that the fixed R1 and R2 sequences, CH3CO-Gly-Ala, and Lys-Phe-Leu-NH2, respectively, allowed optimal detection by MALDI-TOF mass spectrometry of substrates as well as expected products, Ser/Thr-X-His-Z-Lys-Phe-Leu-NH2 and assured separation between the clusters of signals for substrates and products in sublibraries (see below).
Residues in position X included all amino acids commonly present in proteins, except for Asp, Glu, and Cys. The former two contain carboxylates in their side chains, which may bind Ni^2+ in a way which would quench or slow down the hydrolysis reaction. The Cys residue may do the same, and also may engage in side reactions with Ni^2+ ions, including redox processes (for example see Bal and Kasprzak, Toxicol. Lett. 2002, 127, 55-62). Only the Cys residue was eliminated from position Z, for the same reasons.
The synthesis of the library was accomplished on a RINK amide resin (Novabiochem) on a 800 mg scale, according to a typical Fmoc protocol (Fields, Meth. Enzymol. Vol. 289). The resin-attached Leu-Phe-Lys peptide was synthesised first and coupled with the isokinetic mixture of 19 amino acids selected for position Z, and then with the H is residue. The resin carrying the library of pentapeptides was divided into Ser and Thr halves at this stage, and each of these halves into 17 portions, which were coupled with individual amino acids selected for position X. The coupling with Ser or Thr as appropriate, additions of Ala and Gly residues, acetylation of Gly, deprotection and cleavage from the resin were accomplished subsequently. Each of the resulting 34 samples of sublibraries randomized at position X was separated into two portions, one for the reaction at 37° C. and another for the reaction at 45° C. The hydrolysis reactions were accomplished in 10 mM Tris buffers at pH 8.2. The total concentrations of peptide mixtures and Ni^2+ ions were 1 mM and 2 mM, respectively. The pH for the reaction was chosen as selective for highly reactive sequences.
The detection of reaction products was accomplished with the use of a MALDI-TOF mass spectrometer (Micromass). The aliquots were removed from reaction mixtures and measured by MS at 2, 4, 6, and 8 hours of incubation. The progress of reaction was evaluated by visual detection in mass spectra of appearance of signals corresponding to expected products of hydrolysis, Ser/Thr-X-His-Z-Lys-Phe-Leu-NH2, at given measurement times, tm. […] Also the decrease of signals of substrates was controlled in these cases.
Residues X and Z were then sorted according to various molecular parameters, describing their physical properties (Carugo, In Silico Biol. 2003, 3, 0035). […] The Ser library provided a higher number of reactive peptides than the Thr library. Following the additivity of effects, the scores were also summed up in lines and columns of Table 1A-D, thereby creating final rankings for preferred substitutions in positions X and Z.

[1] = CH3CO-Gly-Ala-Thr-X-His-Z-Lys-Phe-Leu-NH2 library, 37° C.
[2] = CH3CO-Gly-Ala-Thr-X-His-Z-Lys-Phe-Leu-NH2 library, 45° C.
[3] = CH3CO-Gly-Ala-Ser-X-His-Z-Lys-Phe-Leu-NH2 library, 37° C.
[4] = CH3CO-Gly-Ala-Ser-X-His-Z-Lys-Phe-Leu-NH2 library, 45° C.

Substance | hydrolysis score from MALDI-TOF screening [1] | hydrolysis score from MALDI-TOF screening [2] | hydrolysis score from MALDI-TOF screening [3] | hydrolysis score from MALDI-TOF screening [4]
Ac-GATFHNKFL-NH2 [TFHN] | 0 (a score of 0 if no trace of the product of hydrolysis was seen after 8 hours of incubation) | 0 (a score of 0 if no trace of the product of hydrolysis was seen after 8 hours of incubation) | – | –
Ac-GASRHPKFL-NH2 [SRHP] | – | – | 0 (a score of 0 if no trace of the product of hydrolysis was seen after 8 hours of incubation) | 0 (a score of 0 if no trace of the product of hydrolysis was seen after 8 hours of incubation)
Ac-GATVHKKFL-NH2 [TVHK] | 0 (a score of 0 if no trace of the product of hydrolysis was seen after 8 hours of incubation) | 0 (a score of 0 if no trace of the product of hydrolysis was seen after 8 hours of incubation) | – | –
Ac-GATHHSKFL-NH2 [THHS] | 0 (a score of 0 if no trace of the product of hydrolysis was seen after 8 hours of incubation) | 4 (a score of 4 for detection at 6 hours) | – | –
Ac-GASYHSKFL-NH2 [SYHS] | – | – | 0 (a score of 0 if no trace of the product of hydrolysis was seen after 8 hours of incubation) | 0 (a score of 0 if no trace of the product of hydrolysis was seen after 8 hours of incubation)
Ac-GASLHLKFL-NH2 [SLHL] | – | – | 3 (a score of 3 for detection at 8 hours) | 0 (a score of 0 if no trace of the product of hydrolysis was seen after 8 hours of incubation)
Ac-GASQHMKFL-NH2 [SQHM] | – | – | 0 (a score of 0 if no trace of the product of hydrolysis was seen after 8 hours of incubation) | 3 (a score of 3 for detection at 8 hours)
Ac-GASNHYKFL-NH2 [SNHY] | – | – | 3 (a score of 3 for detection at 8 hours) | 3 (a score of 3 for detection at 8 hours)
Ac-GASTHEKFL-NH2 [STHE] | – | – | 0 (a score of 0 if no trace of the product of hydrolysis was seen after 8 hours of incubation) | 0 (a score of 0 if no trace of the product of hydrolysis was seen after 8 hours of incubation)
Ac-GATAHFKFL-NH2 [TAHF] | 0 (a score of 0 if no trace of the product of hydrolysis was seen after 8 hours of incubation) | 0 (a score of 0 if no trace of the product of hydrolysis was seen after 8 hours of incubation) | – | –
Ac-GATRHWKFL-NH2 [TRHW] | 12 (a score of 12, if it was seen to be partially hydrolysed at 2 hours) | 12 (a score of 12, if it was seen to be partially hydrolysed at 2 hours) | – | –
Ac-GASIHPKFL-NH2 [SIHP] | – | – | 0 (a score of 0 if no trace of the product of hydrolysis was seen after 8 hours of incubation) | 0 (a score of 0 if no trace of the product of hydrolysis was seen after 8 hours of incubation)
Ac-GATYHRKFL-NH2 [TYHR] | 4 (a score of 4 for detection at 6 hours) | 4 (a score of 4 for detection at 6 hours) | – | –
Ac-GATKHKKFL-NH2 [TKHK] | 3 (a score of 3 for detection at 8 hours) | 12 (a score of 12, if it was seen to be partially hydrolysed at 2 hours) | – | –
Ac-GATPHHKFL-NH2 [TPHH] | – | 0 (a score of 0 if no trace of the product of hydrolysis was seen after 8 hours of incubation) | – | –
Ac-GATMHTKFL-NH2 [TMHT] | 0 (a score of 0 if no trace of the product of hydrolysis was seen after 8 hours of incubation) | 0 (a score of 0 if no trace of the product of hydrolysis was seen after 8 hours of incubation) | – | –

Substance | hydrolysis score from MALDI-TOF screening [1] | hydrolysis score from MALDI-TOF screening [2] | hydrolysis score from MALDI-TOF screening [3] | hydrolysis score from MALDI-TOF screening [4]
Ac-GATWHFKFL-NH2 [TWHF] | 0 (a score of 0 if no trace of the product of hydrolysis was seen after 8 hours of incubation) | 0 (a score of 0 if no trace of the product of hydrolysis was seen after 8 hours of incubation) | – | –
Ac-GASNHHKFL-NH2 [SNHH] | – | – | 0 (a score of 0 if no trace of the product of hydrolysis was seen after 8 hours of incubation) | 3 (a score of 3 for detection at 8 hours)
Ac-GASVHKKFL-NH2 [SVHK] | – | – | 3 (a score of 3 for detection at 8 hours) | 4 (a score of 4 for detection at 6 hours)
Ac-GASGHAKFL-NH2 [SGHA] | – | – | 0 (a score of 0 if no trace of the product of hydrolysis was seen after 8 hours of incubation) | 0 (a score of 0 if no trace of the product of hydrolysis was seen after 8 hours of incubation)
Ac-GASVHTKFL-NH2 [SVHT] | – | – | 0 (a score of 0 if no trace of the product of hydrolysis was seen after 8 hours of incubation) | 0 (a score of 0 if no trace of the product of hydrolysis was seen after 8 hours of incubation)
Ac-GASIHMKFL-NH2 [SIHM] | – | – | 0 (a score of 0 if no trace of the product of hydrolysis was seen after 8 hours of incubation) | 0 (a score of 0 if no trace of the product of hydrolysis was seen after 8 hours of incubation)
Ac-GASIHVKFL-NH2 [SIHV] | – | – | 3 (a score of 3 for detection at 8 hours) | 3 (a score of 3 for detection at 8 hours)
Ac-GASGHYKFL-NH2 [SGHY] | – | – | 0 (a score of 0 if no trace of the product of hydrolysis was seen after 8 hours of incubation) | 0 (a score of 0 if no trace of the product of hydrolysis was seen after 8 hours of incubation)
Ac-GASNHPKFL-NH2 [SNHP] | – | – | 0 (a score of 0 if no trace of the product of hydrolysis was seen after 8 hours of incubation) | 0 (a score of 0 if no trace of the product of hydrolysis was seen after 8 hours of incubation)
Ac-GATSHIKFL-NH2 [TSHI] | 0 (a score of 0 if no trace of the product of hydrolysis was seen after 8 hours of incubation) | 0 (a score of 0 if no trace of the product of hydrolysis was seen after 8 hours of incubation) | – | –
Ac-GASTHFKFL-NH2 [STHF] | – | – | 0 (a score of 0 if no trace of the product of hydrolysis was seen after 8 hours of incubation) | 3 (a score of 3 for detection at 8 hours)
Ac-GASAHVKFL-NH2 [SAHV] | – | – | 0 (a score of 0 if no trace of the product of hydrolysis was seen after 8 hours of incubation) | 3 (a score of 3 for detection at 8 hours)
Ac-GATRHQKFL-NH2 [TRHQ] | 0 (a score of 0 if no trace of the product of hydrolysis was seen after 8 hours of incubation) | 0 (a score of 0 if no trace of the product of hydrolysis was seen after 8 hours of incubation) | – | –
Ac-GATKHNKFL-NH2 [TKHN] | 0 (a score of 0 if no trace of the product of hydrolysis was seen after 8 hours of incubation) | 0 (a score of 0 if no trace of the product of hydrolysis was seen after 8 hours of incubation) | – | –
Ac-GATWHSKFL-NH2 [TWHS] | 0 (a score of 0 if no trace of the product of hydrolysis was seen after 8 hours of incubation) | 0 (a score of 0 if no trace of the product of hydrolysis was seen after 8 hours of incubation) | – | –
Ac-GASSHGKFL-NH2 [SSHG] | – | – | 0 (a score of 0 if no trace of the product of hydrolysis was seen after 8 hours of incubation) | 3 (a score of 3 for detection at 8 hours)
